In patent US6469003B1, “Pyridazinone derivatives” (Nihon Nohyaku Co., Ltd., priority 1998, dated 2002):
pIC50: −log10 of the molar value.

Test system: not given
Assay: not given
Settings: not given

| melting point [°C] | Structure (SMILES) |
| --- | --- |
| 99 to 100 | CC(=O)c1nn(-c2cccc(Cl)c2)c(=O)c(Sc2ccccc2)c1C [Compound 1-64, 6-acetyl-2-(3-chlorophenyl)-5-methyl-4-phenylthio-3(2H)-pyridazinone] |
| 158 to 160 | CC(=O)c1nn(-c2cccc(Cl)c2)c(=O)c(-c2nccs2)c1C [Compound 1-155, 6-acetyl-2-(3-chlorophenyl)-5-methyl-4-(1,3-thiazol-2-yl)-3(2H)-pyridazinone] |
| 165 to 166 | CC(=O)c1nn(-c2ccc(Cl)cc2)c(=O)c(Sc2ccc(Cl)cc2)c1C [Compound 1-29, 6-acetyl-2-(4-chlorophenyl)-4-(4-chlorophenylthio)-5-methyl-3(2H)-pyridazinone] |
| 116 to 117 | CC(=O)c1nn(-c2cccc(Cl)c2)c(=O)c(-c2cccs2)c1C [Compound 1-97, 6-acetyl-2-(3-chlorophenyl)-5-methyl-4-(2-thienyl)-3(2H)-pyridazinone] |
| 195 to 197 | CC(=O)c1nn(-c2cccc(Cl)c2)c(=O)c(C(N)=S)c1C [Compound 1-153, 6-acetyl-4-(aminothioxomethyl)-2-(3-chlorophenyl)-5-methyl-3(2H)-pyridazinone] |
| 172 to 174 | CC(=O)c1nn(-c2ccc(F)cc2)c(=O)c(Sc2ccc(N(C)C)cc2)c1C [Compound 4-04, 6-acetyl-4-(4-dimethylaminophenylthio)-2-(4-fluorophenyl)-5-methyl-3(2H)-pyridazinone] |
| 153 to 156 | CC(=O)c1nn(-c2ccc(F)cc2)c(=O)c(OCc2cccnc2)c1C.Cl |
| 175 to 176 | CC(=O)c1nn(-c2cccc(Cl)c2)c(=O)c(S(=O)(=O)c2ccccc2)c1C [Compound 1-83, 6-acetyl-2-(3-chlorophenyl)-5-methyl-4-phenylsulfonyl-3(2H)-pyridazinone] |
| 182 to 184 | CC(=O)c1nn(-c2ccc(F)cc2)c(=O)c(Sc2ccc(NS(C)(=O)=O)cc2)c1C [Compound 4-01, 6-acetyl-2-(4-fluorophenyl)-5-methyl-4-(4-methylsulfonylaminophenylthio)-3(2H)-pyridazinone] |
| 180 to 182 | Cc1c(C(C)O)nn(-c2cccc(Cl)c2)c(=O)c1Sc1ccccc1 (centres unmarked) [Compound 6-01, 2-(3-chlorophenyl)-6-(1-hydroxyethyl)-5-methyl-4-phenylthio-3(2H)-pyridazinone] |
| 92 to 93 | CC(=O)c1nn(-c2ccc(F)cc2)c(=O)c(SCCN2CCOCC2)c1C [Compound 5-04, 6-acetyl-2-(4-fluorophenyl)-5-methyl-4-(2-morpholin-4-ylethylthio)-3(2H)-pyridazinone] |

Test system: neutrophils isolated from human peripheral blood
Assay: Test of neutrophil adhesion inhibitory activity (fMLP-induced adhesion to keyhole limpet hemocyanin-coated plate)
Format: cell-based
Settings: Neutrophil, fluorescence-labeled, fMLP final concentration of 50 nM, plate coated with keyhole limpet hemocyanin, 37° C., read-out: Test of neutrophil adhesion inhibitory (50% inhibition concentration) IC50
Experimental: Test Example (Test of Neutrophil Adhesion Inhibitory Activity)
To a 96 hole culture plate coated with keyhole limpet hemocyanin were added Dulbecco modified Eagle's media (DMEM, 25 μl) containing various concentrations of the test substance. The neutrophils isolated from human peripheral blood were labeled with fluorescence by means of 5,6-carboxyfluorescein diacetate, suspended into DMEM in a concentration of 1×10^6 cells/ml, and inoculated to the above plate in an amount of 50 μl. Then, after the addition of 25 μl of formylmethionyl-leucyl-phenylalanine (hereinafter referred to as “fMLP”) (final concentration of 50 nM), the cells were cultured at 37° C. for a certain period of time to induce the adhesion of the neutrophils to the plate. After culturing, the plate was washed with phosphate-buffered physiological saline to remove the neutrophils which were not adhered. The adhered neutrophils were dissolved and then the fluorescence intensity was measured. Using the data of a non-stimulated group where the stimulation with fMLP was not carried out and an fMLP-stimulated group where the stimulation was carried out, the adhesion inhibition rate at each concentration of the test substance was determined according to the following equation. From the concentration-inhibition curve, 50% inhibitory concentration (IC50) was calculated.
Adhesion inhibition rate (%)=(Fmax−Fx)/(Fmax−Fo)×100
Fx: the fluorescence intensity of the group treated with a test substance
Fmax: the fluorescence intensity of the fMLP-stimulated group
Fo: the fluorescence intensity of the non-stimulated group

| pIC50 | Structure (SMILES) |
| --- | --- |
| 8.40 | CC(=O)c1nn(-c2cccc(Cl)c2)c(=O)c(Sc2ccccc2)c1C [Compound 1-64, 6-acetyl-2-(3-chlorophenyl)-5-methyl-4-phenylthio-3(2H)-pyridazinone] |
| 7.96 | CC(=O)c1nn(-c2cccc(Cl)c2)c(=O)c(-c2cccs2)c1C [Compound 1-97, 6-acetyl-2-(3-chlorophenyl)-5-methyl-4-(2-thienyl)-3(2H)-pyridazinone] |
| 7.92 | CC(=O)c1nn(-c2cccc(Cl)c2)c(=O)c(S(=O)(=O)c2ccccc2)c1C [Compound 1-83, 6-acetyl-2-(3-chlorophenyl)-5-methyl-4-phenylsulfonyl-3(2H)-pyridazinone] |
| 8.05 | Cc1c(C(C)O)nn(-c2cccc(Cl)c2)c(=O)c1Sc1ccccc1 (centres unmarked) [Compound 6-01, 2-(3-chlorophenyl)-6-(1-hydroxyethyl)-5-methyl-4-phenylthio-3(2H)-pyridazinone] |

Same assay, conditions: fluorescence-labeled, fMLP final concentration of 50 nM, plate coated with keyhole limpet hemocyanin, 37° C., read-out: Test of neutrophil adhesion inhibitory (50% inhibition concentration) IC50

| Structure (SMILES) | pIC50 |
| --- | --- |
| CC(=O)c1nn(-c2cccnc2)c(=O)c(Sc2ccncc2)c1C [Compound 1-32] | 6.78 |
| CC(=O)c1nn(-c2cccc(Cl)c2)c(=O)c(Sc2ccc(C)cc2)c1C [Compound 1-08] | 6.86 |
| CC(=O)c1nn(-c2ccc[n+]([O-])c2)c(=O)c(Sc2ccc(F)cc2)c1C [Compound 1-134, 6-acetyl-4-(4-fluorophenylthio)-5-methyl-2-(3-pyridyl N-oxide)-3(2H)-pyridazinone] | 6.33 |
| CC(=O)c1nn(-c2ccc(F)cc2)c(=O)c(OCc2ccccn2)c1C [Compound 1-113] | 6.45 |
| Cc1c(C(C)O)nn(-c2ccc(F)cc2)c(=O)c1Sc1ccncc1 (centres unmarked) [Compound 6-02] | 6.51 |
| CC(=O)Nc1ccc(Sc2c(C)c(C(C)=O)nn(-c3ccc[n+]([O-])c3)c2=O)cc1 [Compound 1-151] | 6.01 |
| O=C(O)c1cc(CSc2ccc(F)cc2)c(=O)n(-c2cccc(Cl)c2)n1 [Compound 1-80, 1-(3-chlorophenyl)-5-(4-fluorophenylthio)-methyl-6-oxohydropridazin-3-carboxylic acid] | 6.18 |
| CC(=O)c1nn(-c2ccc(F)cc2)c(=O)c(OCc2cc[n+]([O-])cc2)c1C [Compound 1-130, 6-acetyl-2-(4-fluorophenyl)-5-methyl-4-((4-pyridyl N-oxide)methoxy)-3(2H)-pyridazinone] | 6.86 |
| CC(=O)c1nn(-c2cccnc2)c(=O)c(-c2cccs2)c1C [Compound 1-102] | 6.51 |
| CC(=O)c1nn(-c2ccc(F)cc2)c(=O)c(Sc2ccccn2)c1C [Compound 1-21] | 6.71 |
| CC(=O)c1nn(-c2cccc(F)c2)c(=O)c(-c2cccs2)c1C [Compound 1-98] | 6.18 |
| CC(=O)c1nn(-c2ccc(F)cc2)c(=O)c(-c2cccs2)c1C [Compound 1-100] | 6.39 |
| COc1ccccc1Sc1c(C)c(C(C)=O)nn(-c2cccc(Cl)c2)c1=O [Compound 1-04] | 6.21 |
| CC(=O)c1nn(-c2ccc(Cl)cc2)c(=O)c(Sc2ccccc2)c1C [Compound 1-69] | 6.65 |

Continued, values first:

| pIC50 | Structure (SMILES) |
| --- | --- |
| 7.03 | CC(=O)c1nn(-c2cccc(Cl)c2)c(=O)c(Sc2ccc([N+](=O)[O-])cc2)c1C [Compound 1-10] |
| 7.10 | CC(=O)c1nn(-c2cccc(Cl)c2)c(=O)c(Sc2ccccn2)c1C [Compound 1-11] |
| 7.24 | CSc1c(C)c(C(C)=O)nn(-c2cccc(Cl)c2)c1=O [Compound 1-15] |
| 7.26 | CC(=O)c1nn(-c2cccnc2)c(=O)c(Sc2ccc(F)cc2)c1C [Compound 1-31] |
| 7.32 | CC(=O)c1nn(-c2cccc(F)c2)c(=O)c(Oc2ccc(F)cc2)c1C [Compound 1-74] |
| 7.36 | CC(=O)c1nn(-c2ccc(F)cc2)c(=O)c(OCc2ccncc2)c1C [Compound 1-115] |
| 7.40 | COc1ccc(Sc2c(C)c(C(C)=O)nn(-c3cccc(Cl)c3)c2=O)cc1 [Compound 1-06] |
| 7.49 | CC(=O)c1nn(-c2cccc(Cl)c2)c(=O)c(Oc2ccc(F)cc2)c1C [Compound 1-73] |
| 7.49 | COc1cccc(Sc2c(C)c(C(C)=O)nn(-c3cccc(Cl)c3)c2=O)c1 [Compound 1-05] |
| 7.57 | CC(=O)c1nn(-c2cccc(Cl)c2)c(=O)c(Sc2ccc(Cl)cc2)c1C [Compound 1-03] |
| 7.70 | CC(=O)c1nn(-c2cccc(Cl)c2)c(=O)c(Sc2ccc(F)cc2)c1C [Compound 1-07] |
| 7.72 | CC(=O)c1nn(-c2cccc(Cl)c2)c(=O)c(SC(C)(C)C)c1C [Compound 1-17] |
| 7.74 | CC(=O)c1nn(-c2cccc(Cl)c2)c(=O)c(Oc2ccccc2)c1C [Compound 1-70] |
| 7.80 | CC(=O)c1nn(-c2cccc(Cl)c2)c(=O)c(Sc2ccccc2Cl)c1C [Compound 1-01] |
| 7.85 | CC(=O)c1nn(-c2ccc(F)cc2)c(=O)c(Sc2ccncc2)c1C [Compound 1-24] |
| 8.00 | CC(=O)c1nn(-c2ccc(F)cc2)c(=O)c(Sc2ccncc2)c1C [Compound 1-25] |
| 8.00 | CC(=O)c1nn(-c2cccc(Cl)c2)c(=O)c([S+]([O-])c2ccccc2)c1C (centres unmarked) [Compound 1-84] |
| 8.05 | CC(=O)c1nn(-c2ccc(F)cc2)c(=O)c(Sc2cccnc2)c1C [Compound 1-22] |
| 8.15 | CC(=O)c1nn(-c2cccnc2)c(=O)c(Sc2ccccc2)c1C [Compound 1-68] |
| 8.22 | CC(=O)c1nn(-c2ccc(F)cc2)c(=O)c(Sc2cccnc2)c1C [Compound 1-23] |
| 8.30 | CC(=O)c1nn(-c2ccc(F)cc2)c(=O)c(Sc2ccc(F)cc2)c1C [Compound 1-20] |
